Assay results: patent US8148392B2, “2-indolyl imidazo [4,5-d] phenanthroline derivatives and their use in the treatment of cancer” (Lorus Therapeutics Inc., priority 2005, dated 2012)
Read-outs that look alike come from different tables or passages of the source.

Assays:
[1] = system: human colon carcinoma HT-29 cells; assay: XTT cell proliferation assay, HT-29; assay type: cell-based
How it was run: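 HT-29 cells in McCoy's 5A with 10% FBS, 37° C., 5% CO2, exposed to varying compound concentrations for 6-7 days. Viable cells quantified by XTT reduction to formazan; growth inhibition expressed as IC50 (μM).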

Solubility in water = assay type: physicochemical; details: HCl salt of compound 2
Method: A solution of 0.200 g of compound 2 (0.483 mmol) in DMF was treated with HCL(g) until no more precipitation was observed. The solid was then filtered, washed with dichloromethane and hexanes, dried in vacuum.

[2] = system: panel of 60 human cancer cell lines; assay: NCI DTP in vitro anticancer screen, panel of 60 human cancer cell lines; assay type: cell-based; details: average over human tumour cell lines of the NCI panel (FIG. 1); read-out: average GI50 (growth inhibition by 50%)
Method: For example, the following methodology, which is currently employed by the NCI, can be used to assess the GI50 of a candidate compound of Formula I in the selected cancer cell lines. Briefly, cell suspensions are diluted (5000-40,000 cells per well) and 100 μL of the diluted cell suspension is added into 96-well microtiter plates. Inoculates are allowed a preincubation period of 24 h at 37° C. for stabilization. Dilutions at twice the intended test concentration of the candidate compound are added at time zero in 100 μL aliquots to the microtiter plate wells. Test compounds are generally evaluated at five 10-fold dilutions. In routine testing, the highest well concentration is usually 10E-4 M, but this may be adjusted depending on the compound being tested. The cells are incubated with the test compound for 48 h in 5% CO2 atmosphere and 100% humidity. The cells are then assayed by using the sulforhodamine B assay (see, for example, Skehan, P., et al. (1990) JNCI, J. Natl. Cancer Inst. 82, 1107-1112; and Chen, S. F., et al. (1990) Proc. Am. Assoc. Cancer Res. 31, A2644) employing a plate reader which can be used to read the optical densities.
Compounds 2 and 3 were evaluated for their antiproliferative effects in a panel of 60 human cancer cell lines as part of the in vitro anticancer screening services provided by the DTP (Developmental Therapeutics Program) of the US National Cancer Institute (NCI).
Analysis of the effects of compounds of Formula I on in vitro and in vivo cell growth inhibition were performed utilizing the methods as described in the preceding Examples. As shown in Example 12, cell growth inhibition by the parental compound 3 was screened by National Cancer Institute 60-cell line assay and leukemia, non-small cell cancer, colon cancer, renal cancer and prostate cancer panels were especially sensitive to compound 3.

KLF4 [3] = assay: KLF4 gene expression by RT-PCR, MOLT-4; assay type: cell-based, human; details: MOLT-4, relative to vehicle control as 1
Excerpt: (§1) Gene expression levels of KLF4, induced by compounds of Formula I, were also examined on various cancer cell types by RT-PCR. Fold changes in KLF4 in compound-treated cells were expressed relative to KLF4 expression in vehicle control-treated cells of respective cell type as “1”. […] Additionally, xenografts of MDA-MB-435 implanted into mammary fat pads of female SCID mice have shown immunohistochemical staining consistent with melanocytic origin (Ellison G, Klinowska T, Westwood R F, Docter E, French T, Fox J C. (2002) Mol Pathol. 55(5): 294-299). The breast cancer cell line MDA-MB-435 may be expected to function differently than the other breast cancer cell lines.

KLF4 [4] = assay: KLF4 gene expression by RT-PCR, HCT-116; assay type: cell-based, human; details: HCT-116, relative to vehicle control as 1
Excerpt: as §1

H-460 lung cancer cells = assay: XTT cell proliferation assay, H-460; assay type: cell-based, human; details: read-out: IC50 (cell growth inhibition)
Method: (§2) Cell growth inhibition IC50 (μM) by compounds of Formula I was tested on various cancer cell types by XTT cell proliferation assay. The growth inhibitory effects of the compounds of Formula I as shown below for the melanoma cell line SK-MEL-2 were reproducible by Lorus Therapeutics Inc.

KLF4 [5] = assay: KLF4 gene expression by RT-PCR, PC-3; assay type: cell-based, human; details: PC-3, relative to vehicle control as 1
Excerpt: as §1

SK-MEL-2 melanoma cells = assay: XTT cell proliferation assay, SK-MEL-2; assay type: cell-based, human; details: read-out: IC50 (cell growth inhibition)
Method: as §2

KLF4 [6] = assay: KLF4 gene expression by RT-PCR, CCRF-CEM; assay type: cell-based, human; details: relative to vehicle control as 1
Excerpt: as §1

CCRF-CEM leukemia cells = assay: XTT cell proliferation assay, CCRF-CEM; assay type: cell-based, human; details: read-out: IC50 (cell growth inhibition)
Method: as §2

[7] = system: MDA-MB-435 breast cancer cells; assay: XTT cell proliferation assay, MDA-MB-435; assay type: cell-based, human; details: read-out: IC50 (cell growth inhibition)
Method: as §2

KLF4 [8] = assay: KLF4 gene expression by RT-PCR, MDA-MB-231; assay type: cell-based, human; details: MDA-MB-231, relative to vehicle control as 1
Excerpt: as §1

[9] = system: MDA-MB-231 breast cancer cells; assay: XTT cell proliferation assay, MDA-MB-231; assay type: cell-based, human; details: read-out: IC50 (cell growth inhibition)
Method: as §2

KLF4 [10] = assay: KLF4 gene expression by RT-PCR, DU-145; assay type: cell-based, human; details: DU-145, relative to vehicle control as 1
Excerpt: as §1

MOLT-4 leukemia cells = assay: XTT cell proliferation assay, MOLT-4; assay type: cell-based, human; details: read-out: IC50 (cell growth inhibition)
Method: as §2

KLF4 [11] = assay: KLF4 gene expression by RT-PCR, H-460; assay type: cell-based, human; details: H-460, relative to vehicle control as 1
Excerpt: as §1
Expressions of KLF2, 4 and 6 genes in H-460 cells, treated with vehicle control or 2.5 μM compound 3 or compound 7, were measured by RT-PCR. Gene expression was presented relative to respective gene expression in vehicle control-treated group as “1”.

KLF4 [12] = assay: KLF4 gene expression by RT-PCR, MDA-MB-435; assay type: cell-based, human; details: MDA-MB-435, relative to vehicle control as 1
Excerpt: as §1

KLF4 [13] = assay: KLF4 gene expression by RT-PCR, SK-MEL-2; assay type: cell-based, human; details: SK-MEL-2, relative to vehicle control as 1
Excerpt: as §1

KLF4 [14] = assay: KLF4 gene expression by RT-PCR, HT-29; assay type: cell-based, human; details: HT-29, relative to vehicle control as 1
Method: To determine whether compounds of Formula I can chelate zinc in cells, the effect of compound 3 on the expression level of a zinc-regulated gene, metallothionein 1A (MT1A), in human colon carcinoma HT-29 cells, was determined. HT-29 cells, 1×10^6 cells in 10 mL volume of the growth medium were seeded in 100 mm dishes and incubated overnight at 37° C. The medium was removed and replaced with the growth medium containing 35 μM ZnCl2, 1 μM or 4 μM TPEN (NNNN-tetrakis(2-pyridyl-methyl)ethylenediamine), or 1 μM or 4 μM compound 3, or 0.1% DMSO vehicle control. After incubation for 16 hours, the cells were detached by trypsinization, collected by centrifugation and washed once with PBS. Total RNA was extracted by using TRIZOL (Invitrogen, Life Technologies, Carlsbad, Calif.), following manufacturer's instruction, and the level of MT1A mRNA was measured by real time PCR using the comparative CT method as follows. First strand cDNA was synthesized from 200 ng total RNA in Biometra Tpersonal Thermal Cycler (Abgene, UK), using pd(N)6 random hexamer (Amersham Biosciences, Piscataway, N.J.) and SuperScript™ II Reverse Transcriptase kit (Invitrogen) by following manufacturer's protocol. Real-time PCR was performed in ABI Prism 7000 Sequence Detection System (Applied Biosystems Inc., ABI, Foster City, Calif.), using 5 μL of cDNA synthesized by above-mentioned procedure and respective TaqMan® Gene Expression Assays (ABI) by following ABI TaqMan® Universal PCR master mix protocol.
The ability of compounds of Formula I to modulate the mRNA level of a transition metal-regulated tumour suppressor gene was determined in vitro as follows. Compound 3 was tested to determine its ability to increase the expression of zinc-regulated tumour suppressor KLF4 mRNA in colon carcinoma HT-29 cells. […] HT-29 cells were incubated for 16 hours with DMSO as a vehicle control, 35 μM ZnCl2, 1 μM or 4 μM of compound 3, or 1 μM or 4 μM TPEN for 16 hours and mRNA was extracted from the cells as described in Example 19. The expression of KLF4 mRNA was analyzed by real-time polymerase chain reaction using the comparative CT method also as described in Example 19. Compound 3 induced the expression of KLF4 mRNA (approximately 8-fold) in HT-29 cells compared with HT-29 cells treated with vehicle alone (See FIG. 8).
as §1
The change in gene expression of KLF4 upon zinc depletion following compound 3 treatment was determined by RT-PCR as follows. HT-29 cells were treated with 1 μM compound 3 for the indicated time (FIG. 39A) or HT-29 cells were treated with 1 μM compound 3, 35 μM ZnCl2 or compund 3 and ZnCl2 together for 16 hr (FIG. 39B). Total RNA was extracted and gene expression level was determined by RT-PCR.
Fold change in KLF4 gene expression was presented relative to KLF4 expression in non-specific siRNA-transfected cells treated with vehicle control.

[15] = system: HCT-116 colon cancer cells; assay: XTT cell proliferation assay, HCT-116; assay type: cell-based, human; details: read-out: IC50 (cell growth inhibition)
Method: as §2

[16] = system: DU-145 prostate cancer cells; assay: XTT cell proliferation assay, DU-145; assay type: cell-based, human; details: read-out: IC50 (cell growth inhibition)
Method: as §2

[17] = system: PC-3 prostate cancer cells; assay: XTT cell proliferation assay, PC-3; assay type: cell-based, human; details: read-out: IC50 (cell growth inhibition)
Method: as §2

## Brc1ccc2[nH]cc(-c3nc4c5cccnc5c5ncccc5c4[nH]3)c2c1 [Compound 2]
[1]; Homo sapiens, HT-29, XTT, 6-7 days, Table 3, read-out: IC50
  IC50: 700 nM
[1]; Homo sapiens, HT-29, XTT, as Example 13, Table 7, read-out: IC50
  IC50: 1.5 µg/mL
Solubility in water
  solubility in water: soluble in water
[2]
  GI50: < 2000 nM

## CC(C)(C)c1ccc2[nH]c(C(C)(C)C)c(-c3nc4c5cccnc5c5ncccc5c4[nH]3)c2c1 [Compound 63]
KLF4 [3]
  KLF4 (gene fold increase): 223.63 fold
[1]; HT-29, XTT, as Example 13, Table 7
  IC50: 0.2 µg/mL
[1]; HT-29 colon, Table 8, read-out: IC50 (cell growth inhibition)
  IC50: 200 nM
KLF4 [4]
  KLF4 (gene fold increase): 2.82 fold
H-460 lung cancer cells
  IC50: 400 nM
KLF4 [5]
  KLF4 (gene fold increase): 1.34 fold
SK-MEL-2 melanoma cells
  IC50: 170 nM
KLF4 [6]
  KLF4 (gene fold increase): 76.37 fold
CCRF-CEM leukemia cells
  IC50: 300 nM
[7]
  IC50: 500 nM
KLF4 [8]
  KLF4 (gene fold increase): 1.77 fold
[9]
  IC50: 3.7 µM
KLF4 [10]
  KLF4 (gene fold increase): 12.95 fold
MOLT-4 leukemia cells
  IC50: 200 nM
KLF4 [11]
  KLF4 (gene fold increase): 1.55 fold
KLF4 [12]
  KLF4 (gene fold increase): 7.67 fold
KLF4 [13]
  KLF4 (gene fold increase): 5.46 fold
KLF4 [14]
  KLF4 (gene fold increase): 5.98 fold
[15]
  IC50: 300 nM
[16]
  IC50: 400 nM
[17]
  IC50: 320 nM
